Results on 1 molecule are retold here after patent US20080032324A1, “Apparatus and method for cell migration assays” (The Trustees Of Tufts College, priority 2004, published 2008).

What all share (assay type): cell-based, mouse
Data set [1] has as its system NIH/3T3 fibroblasts. Put plainly: Fiber bundle whole-cell migration assay (residence time, 25 μm fibers). The note with it: ten minutes per frame, average of 30 fibers, ten hours, control 4.3±2.9 frames. The method, then:
(§1) After labeling, the cells were allowed to settle and adhere to a fibronectin-coated fiber bundle that had been secured to a delta T4 dish (FIG. 1A). Fibers were placed into the delta T4 dish to maintain the temperature at 37° C. during experiments. […] After cells were allowed to adhere to the bundle's distal end, it was mounted on an inverted microscope stage, and excitation light was introduced through the proximal end of the fiber bundle. The fiber bundle is not connected directly to any part of the microscope, but remains within a centimeter of the objective. The excitation light was transferred through the fiber bundle to the distal end, where it excited the Vibrant DiO dye in the cell membrane (FIG. 1B). The resulting fluorescence emission light was then carried back through the fiber bundle to a CCD camera. […]
(§2) Cell migration was detected using two types of fiber bundles differing in the sizes of the individual fibers. […]
Migration is quantified as an increase in intensity at a particular fiber, as a fluorescently dyed cell moves across that fiber. […]
In this example, a threshold was assigned for each selected fiber at 75% of the maximum peak intensity for that particular fiber. […] The number of frames that the intensity stays above this threshold is counted for each fiber, and then averaged for all 30 fibers, giving an average residence time for the experiment (FIG. 2D). […]

In data set [2] the test system is NIH/3T3 fibroblasts. Put plainly: Fiber bundle subcellular imaging assay (residence time, 4.5 μm fibers). The conditions noted are these: 10 seconds per frame, top 30 fibers, 5-minute experiment, control 7.5±7.4 frames. The method, then:
as §1, with “The excitation light was transferred through the fiber bundle to the distal end, where it excited the Vibrant DiO dye in the cell membrane (FIG. 1B).” left out
as §2
The data shown in FIG. 3C originate from an experiment in which three separate fibers were exposed to successively higher concentrations of nocodazole. […] Regions of the cell periphery can be difficult to distinguish from the background, because the fluorescence intensity gradually diminishes at the cell perimeter. […]
Timelapse recording was performed to determine the extent of cell migration or membrane motion across the fiber surface. […] Cell movement was recorded on delta T4 dishes (data not shown), as well as on Schott and Illumina fiber bundles. […] All movement was recorded using a fluorescein filter set. […]

In data set [3] the test system is NIH/3T3 fibroblasts. Kind of data set: Cell viability, ethidium homodimer-1 dead assay after the experiment. The note with it: ethidium homodimer dead assay after each experiment. The text has this: The dead assay was taken from a Live/Dead Viability/Cytotoxicity kit from Molecular Probes. DiO and EthD show virtually no overlap in excitation/emission wavelengths, being 484/501 nm and 528/617 nm, respectively.

Entries after “also recorded” stand apart in the source; their conditions may differ.

Regarding `COC(=O)Nc1nc2ccc(C(=O)c3cccs3)cc2[nH]1` [nocodazole, Nocodazole], the average residence time came to 18.8±10.3 frames in the data set with NIH/3T3 fibroblasts [1] (200 nM nocodazole), 24.6±18.6 frames in the data set on NIH/3T3 fibroblasts [1] (300 nM nocodazole), 13.2±8.0 frames with NIH/3T3 fibroblasts [2] (200 nM nocodazole) and 19.0±9.4 frames in the data set with NIH/3T3 fibroblasts [2] (300 nM nocodazole). Moreover, in the data set with NIH/3T3 fibroblasts [3], the “cell viability after nocodazole treatment” value is on record as “all cells were alive; also recorded: Cells were determined to be alive”.
